Assay results from ChEMBL document CHEMBL4251742, “Modulating ADME Properties by Fluorination: MK2 Inhibitors with Improved Oral Exposure” (ACS Med Chem Lett, 2018).
In brackets after ≈: the same amount, converted by molar mass.

Key:
[1] = Permeability of the compound by PAMPA; assay type: ADME
[2] = Lipophilicity, log D of compound at pH 7.4; conditions: buffer
[3] = Oral bioavailability in Sprague-Dawley rat at 3 mg/kg administered as single cassette dose measured over 8 hrs by LC-MS/MS analysis; assay type: ADME, organism-based; conditions: in vivo
Rattus norvegicus [4] = experiment: Dose normalized AUC in Sprague-Dawley rat at 3 mg/kg, po administered as single cassette dose measured over 8 hrs by LC-MS/MS analysis; assay type: ADME, organism-based; conditions: in vivo
[5] = Clearance in Sprague-Dawley rat at 1 mg/kg, iv administered as single cassette dose measured over 8 hrs by LC-MS/MS analysis; assay type: ADME, organism-based; conditions: in vivo
[6] = (§1) Oral bioavailability in Sprague-Dawley rat at 3 mg/kg administered as single cassette dose by LC-MS/MS analysis; assay type: ADME, organism-based; conditions: Sprague-Dawley, in vivo
Rattus norvegicus [7] = experiment: Dose normalized AUC in Sprague-Dawley rat at 3 mg/kg, po administered as single cassette dose by LC-MS/MS analysis; assay type: ADME, organism-based; conditions: in vivo
[8] = Clearance in Sprague-Dawley rat at 1 mg/kg, iv administered as single cassette dose by LC-MS/MS analysis; assay type: ADME, organism-based; conditions: in vivo
PBMC = experiment: cells; conditions: Homo sapiens
Blood = experiment: tissue or blood; conditions: Homo sapiens
Rattus norvegicus [9] = experiment: as §1; assay type: ADME, organism-based; conditions: in vivo
[10] = biological target: T1, MAP kinase-activated protein kinase 2 (Homo sapiens, UniProt P49137); experiment: Inhibition of human MK2 using hsp27 peptide biotinyl-AYSRALSRQLSSGVSEIRCOOH as substrate after 45 mins by TR-FRET assay
T1 sequence (P49137 whole entry): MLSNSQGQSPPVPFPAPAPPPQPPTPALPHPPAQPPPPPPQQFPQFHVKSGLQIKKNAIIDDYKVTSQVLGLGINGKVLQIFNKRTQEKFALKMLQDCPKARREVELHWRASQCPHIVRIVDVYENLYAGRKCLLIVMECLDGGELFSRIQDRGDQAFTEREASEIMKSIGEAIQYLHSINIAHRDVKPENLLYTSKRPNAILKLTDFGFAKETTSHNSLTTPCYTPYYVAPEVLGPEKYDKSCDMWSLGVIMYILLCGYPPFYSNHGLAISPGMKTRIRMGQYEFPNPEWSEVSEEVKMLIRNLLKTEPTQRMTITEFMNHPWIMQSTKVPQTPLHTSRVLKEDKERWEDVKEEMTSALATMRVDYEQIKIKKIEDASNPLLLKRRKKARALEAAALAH

[11] = biological target: T1, MAP kinase-activated protein kinase 2; experiment: Inhibition of MK2 in anisomycin-stimulated human THP1 cells assessed as reduction in hsp27 phosphorylation at Ser78 by FACS analysis
[12] = Aqueous solubility of the compound; assay type: physicochemical; conditions: buffer

Compound | log(permeability) [1] | logD [2] | bioavailability [3] [%] | AUC/dose (Rattus norvegicus [4]) [nmol·h/L] | clearance [5] [mL/min/kg] | bioavailability [6] [%] | AUC/dose (Rattus norvegicus [7]) [nmol·h/L] | clearance [8] [mL/min/kg] | IC50 (PBMC) [nM] | IC50 (Blood) [nM] | F (Rattus norvegicus [9]) [%] | IC50 [10] [nM] | IC50 [11] [nM] | solubility [12] [µg/mL]
CN1CC2(CNC(=O)c3c4c(n(C)c32)-c2cc(-c3cccc(Cl)c3)ncc2CC4)C1 | -3.9 | 3.7 | 53 | 2415 | 10 | – | – | – | – | – | – | – | – | –
COc1ccc(-c2ncc3c(c2F)-c2[nH]c4c(c2CC3)C(=O)NCC42CN(C)C2)cc1F | -4.5 | 3.3 | – | – | – | 60 | 1301 | 20 | 240 | 800 | – | – | – | –
CN1CC2(CNC(=O)c3c2[nH]c2c3CCc3cnc(-c4cccc(F)c4)nc3-2)C1 | -4.6 | – | – | – | – | – | 2154 | 30 | – | – | 151 | – | – | –
COc1ccc(-c2ncc3c(c2F)-c2[nH]c4c(c2CC3)C(=O)NCC42CN(C)C2)cn1 | -4.8 | 2.8 | – | – | – | 77 | 1766 | 19 | 490 | 590 | – | < 3 | 480 | –
CN1CC2(CNC(=O)c3c2[nH]c2c3CCc3cnc(-c4cccc(F)c4)cc3-2)C1 | -5.2 | 3.4 | – | – | – | 27 | 121 | 100 | – | 670 | – | – | – | 32 (≈ 82.4 µM)
CN1CC2(CNC(=O)c3c2[nH]c2c3CCc3cnc(-c4cccc(F)c4)c(F)c3-2)C1 | -4.1 | 3.2 | – | – | – | 81 | 3486 | 11 | 550 | 1650 | – | – | – | 4 (≈ 9.84 µM)
